Assay results as given in the supplement of paper PMC10307832.

Columns and labels:
Assay in all cases: relative viability (nuclei count vs DMSO), 5 days (fraction); higher = more cells survive
Trametinib + Dasatinib = compound: CC(=O)Nc1cccc(-n2c(=O)n(C3CC3)c(=O)c3c(Nc4ccc(I)cc4F)n(C)c(=O)c(C)c32)c1 [Trametinib] + Cc1nc(Nc2ncc(C(=O)Nc3c(C)cccc3Cl)s2)cc(N2CCN(CCO)CC2)n1 [Dasatinib] (partner 0.075 µM)
Method in brief: (§1)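 After 5 days of treatment, lung cancer cells in 1536-well plates were fixed and stained in a single step (final 0.05% Triton X-100, 1% formaldehyde, 1 ug/ml Hoechst) and their nuclei counted on 4× images. Treatment had been applied by pin tool the day after seeding as one drug alone or as a fixed anchor-drug dose with five library-drug doses (not always all listed) in √10 steps. Relative viability is the nuclei count of treated wells divided by that of vehicle wells, and values are medians of duplicate plates.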

[1] = compound: CN1C=C(C2=CC=CC=C21)/C=C\3/C4=C(C=CC=N4)NC3=O + CCNC(=O)c1noc(-c2cc(C(C)C)c(O)cc2O)c1-c1ccc(CN2CCOCC2)cc1 [Luminespib] (partner 0.01 µM)
Method in brief: as §1

[2] = compound: CN1C=C(C2=CC=CC=C21)/C=C\3/C4=C(C=CC=N4)NC3=O + Cc1nc(NC(=O)N2CCC[C@H]2C(N)=O)sc1-c1ccnc(C(C)(C)C(F)(F)F)c1 [Alpelisib] (partner 2 µM)
Method in brief: as §1

Trametinib + Tozasertib = compound: CC(=O)Nc1cccc(-n2c(=O)n(C3CC3)c(=O)c3c(Nc4ccc(I)cc4F)n(C)c(=O)c(C)c32)c1 [Trametinib] + Cc1cc(Nc2cc(N3CCN(C)CC3)nc(Sc3ccc(NC(=O)C4CC4)cc3)n2)n[nH]1 [Tozasertib] (partner 0.1 µM)
Method in brief: as §1

| Cell Line | relative viability (Trametinib + Dasatinib; first compound 0.0025 µM) | relative viability (Trametinib + Dasatinib; first compound 0.007906 µM) | relative viability (Trametinib + Dasatinib; first compound 0.025 µM) | relative viability (Trametinib + Dasatinib; first compound 0.07906 µM) | relative viability (Trametinib + Dasatinib; first compound 0.25 µM) | relative viability ([1]; first compound 0.02 µM) | relative viability ([1]; first compound 0.06325 µM) | relative viability ([1]; first compound 0.6325 µM) | relative viability ([1]; first compound 2 µM) | relative viability ([2]; first compound 0.02 µM) | relative viability ([2]; first compound 0.06325 µM) | relative viability ([2]; first compound 0.2 µM) | relative viability ([2]; first compound 2 µM) | relative viability (Trametinib + Tozasertib; first compound 0.0025 µM) | relative viability (Trametinib + Tozasertib; first compound 0.007906 µM) | relative viability (Trametinib + Tozasertib; first compound 0.025 µM) | relative viability (Trametinib + Tozasertib; first compound 0.07906 µM) | relative viability (Trametinib + Tozasertib; first compound 0.25 µM) | relative viability ([1]; first compound 0.2 µM) | relative viability ([2]; first compound 0.6325 µM) |
| --- | --- | --- | --- | --- | --- | --- | --- | --- | --- | --- | --- | --- | --- | --- | --- | --- | --- | --- | --- | --- |
| NCI-H1792 | 0.694 | 0.515 | 0.652 | 0.549 | 0.396 | 0.447 | 0.447 | 0.413 | 0.643 | 0.536 | 0.723 | 0.608 | 0.581 | – | – | – | – | – | – | – |
| NCI-H1651 | 0.487 | 0.384 | 0.404 | 0.284 | 0.217 | 0.953 | 0.772 | 1.13 | 1.02 | 0.916 | 0.947 | 1.06 | 0.921 | 0.666 | 0.555 | 0.541 | 0.526 | 0.498 | 1.02 | 0.998 |
| A549 | – | – | – | – | – | – | – | – | – | 0.863 | 0.736 | 0.843 | 0.691 | – | – | – | – | – | – | 0.808 |
| HCC-366 | 0.47 | 0.416 | 0.32 | 0.227 | 0.196 | – | – | – | – | 0.296 | 0.328 | 0.284 | 0.267 | 0.117 | 0.0857 | 0.0884 | 0.07 | 0.0695 | – | 0.31 |
| EKVX | 0.398 | 0.492 | 0.31 | 0.226 | 0.221 | 0.79 | 0.784 | 0.865 | 0.868 | 0.765 | 0.763 | 0.795 | 0.703 | 0.387 | 0.397 | 0.335 | 0.227 | 0.26 | 0.821 | 0.725 |
| NCI-H1993 | 0.51 | 0.521 | 0.505 | 0.521 | 0.551 | 0.828 | 0.686 | 0.67 | 0.369 | 0.631 | 0.653 | 0.678 | 0.698 | 0.539 | 0.498 | 0.568 | 0.558 | 0.459 | 0.813 | 0.736 |
| NCI-H522 | 0.892 | 0.913 | 0.665 | 0.724 | 0.671 | 1.32 | 0.937 | 1.18 | 1.12 | – | – | – | – | 0.583 | 0.529 | 0.455 | 0.526 | 0.446 | 1.02 | – |
| NCI-H1703 | – | – | – | – | – | – | – | – | – | 0.436 | 0.299 | 0.324 | 0.268 | – | – | – | – | – | – | 0.41 |
| NCI-H23 | 0.544 | 0.74 | 0.293 | 0.231 | 0.172 | 0.232 | 0.178 | 0.194 | 0.222 | 0.628 | 0.522 | – | 0.689 | 0.339 | 0.211 | 0.283 | 0.248 | 0.213 | – | 0.602 |
| HCC-827 | 0.301 | 0.243 | 0.246 | 0.144 | 0.157 | 0.589 | 0.52 | 0.59 | 0.756 | 0.969 | 0.992 | – | 0.984 | 0.406 | 0.401 | 0.31 | 0.293 | 0.307 | – | 0.978 |
| PC-3 [JPC-3] | 1.06 | 0.927 | 0.848 | 0.823 | 0.743 | 0.628 | 0.595 | 0.682 | 0.839 | 1.02 | 0.99 | 1.03 | 0.989 | 0.864 | 0.742 | 0.795 | 0.629 | 0.563 | 0.647 | 1.03 |
| NCI-H1355 | 0.607 | 0.528 | 0.337 | 0.373 | 0.326 | 0.65 | 0.623 | 0.533 | 0.629 | 0.663 | 0.66 | 0.739 | 0.547 | 0.588 | 0.463 | 0.418 | 0.394 | 0.318 | 0.669 | 0.468 |
| NCI-H727 | 0.31 | 0.212 | 0.347 | 0.196 | 0.244 | 0.365 | 0.329 | 0.4 | 0.271 | 0.48 | 0.533 | 0.307 | 0.604 | 0.353 | 0.337 | 0.287 | 0.231 | 0.279 | 0.394 | 0.466 |
| IA-LM | – | – | – | – | – | – | – | – | – | 0.972 | 0.549 | 0.906 | 0.681 | – | – | – | – | – | – | 0.736 |
| NCI-H1975 | 0.28 | 0.218 | 0.15 | 0.172 | 0.123 | 0.0911 | 0.261 | 0.338 | 0.206 | 0.603 | 0.718 | 0.536 | 0.498 | 0.716 | 0.703 | 0.478 | 0.338 | 0.29 | 0.187 | 0.625 |
| SW 900 | 0.559 | 0.652 | 0.46 | 0.57 | 0.238 | 0.191 | 0.186 | 0.165 | 0.176 | – | – | – | – | 0.579 | 0.547 | 0.724 | 0.511 | 0.412 | – | – |
| NCI-H1648 | – | – | – | – | – | – | – | – | – | – | – | – | – | – | 0.611 | 0.515 | 0.4 | 0.352 | – | – |
| NCI-H1563 | 0.466 | 0.509 | 0.467 | 0.438 | 0.464 | 0.506 | 0.537 | 0.483 | 0.464 | 0.898 | 0.951 | 0.73 | 0.863 | – | – | – | – | – | 0.541 | 0.977 |
| NCI-H2342 | 0.298 | 0.28 | – | 0.3 | 0.303 | 0.685 | 0.743 | 0.757 | 0.669 | – | – | – | – | 0.488 | 0.435 | – | 0.516 | 0.492 | 0.6 | – |
| ChaGo-K-1 | 0.586 | 0.605 | 0.567 | 0.475 | 0.48 | 0.54 | 0.56 | 0.482 | 0.59 | – | – | – | – | 0.232 | 0.223 | 0.214 | 0.201 | 0.191 | 0.522 | – |
| Calu-6 | – | – | – | – | – | – | – | – | – | 0.823 | 0.856 | 0.959 | 0.911 | – | – | – | – | – | – | 0.975 |
| NCI-H1299 | – | – | – | – | – | – | – | – | – | 1.06 | 1.14 | 1.14 | 1.06 | – | – | – | – | – | – | 1.1 |
| EBC-1 | – | – | – | – | – | – | – | – | – | 0.727 | 0.776 | 0.894 | 0.784 | – | – | – | – | – | – | 0.823 |
